Values quoted from earlier work, collected in patent US6849254B1, “HCV combination therapy” (Schering Corporation, priority 1999, dated 2005).

Tests used:
CD4 levels = details: HIV patients; higher doses; Phase I/II clinical trials (PharmaProjects)
[1] = for Potency of 1 mg in IU of Vitamin E: per 1 mg
[2] = test system: chronic childhood cholestasis; details: 20-25 IU/kg/day (Sokool et al.)

| Compound | Potency of 1 mg in IU of Vitamin E [1] [IU] | other results |
| --- | --- | --- |
| CC(C)(Sc1cc(C(C)(C)C)c(O)c(C(C)(C)C)c1)Sc1cc(C(C)(C)C)c(O)c(C(C)(C)C)c1 [Panavia, 4,4′-isopropylidenedithiobis-2,6-di-t-butylphenol] | – | CD4 levels (CD4 levels): stablized or slightly stabilized CD4 levele |
| Cc1c(C)c2c(c(C)c1O)CC[C@@](C)(CCC[C@H](C)CCC[C@H](C)CCCC(C)C)O2 [d-alpha tocopherol] | 1.49 | – |
| CC(=O)Oc1c(C)c(C)c2c(c1C)CC[C@@](C)(CCC[C@H](C)CCC[C@H](C)CCCC(C)C)O2 [d-alpha tocopheryl acetate] | 1.36 | – |
| Cc1c(C)c2c(c(C)c1OC(=O)CCC(=O)O)CC[C@@](C)(CCC[C@H](C)CCC[C@H](C)CCCC(C)C)O2 [d-alpha tocopheryl succinate] | 1.21 | – |
| CC(=O)Oc1c(C)c(C)c2c(c1C)CC[C@@](C)(CCC[C@H](C)CCC[C@H](C)CCCC(C)C)O2 [di-alpha tocopheryl acetate] | – | Amount equivalent to one IU of Vitamin E ([1]; per one IU of Vitamin E): 1 mg |
| d-alpha-tocopheryl polyethylene glycol 1000 succinate [Vitamin E-TPGS] | – | Safety and efficacy in chronic childhood cholestasis [2]: appears to be safe and effective |
